Where a SMILES comes first, the peptide text is derived from it. Bridges are numbered along the chain shown (N, C = ends). [ ]: non-standard residue; d: D form. The star is where a group is joined. hPhe(3-Cl-4-CF3) = N[C@@H](CCc1ccc(C(F)(F)F)c(Cl)c1)C(=O)O; NPrPhe(4-CF3) = CCCN[C@@H](Cc1ccc(C(F)(F)F)cc1)C(=O)O; NMeGly(cPent) = CN[C@H](C(=O)O)C1CCCC1; Pro(4,4-F2) = O=C(O)[C@@H]1CC(F)(F)CN1; NMeL = CN[C@@H](CC(C)C)C(=O)O; Morpholide = C1CN(*)CCO1; NMeA = CN[C@@H](C)C(=O)O; Ac5c = NC1(C(=O)O)CCCC1; Aze = O=C(O)[C@@H]1CCN1; Ac4c = NC1(C(=O)O)CCC1; Sar = CNCC(=O)O
Legend:
[1] = target: GDP-bound NRAS wild-type protein (Homo sapiens, UniProt P01111); test: Binding to NRAS by surface plasmon resonance (SPR), Single Cycle Kinetics
Sequence of GDP-bound NRAS wild-type protein (P01111 whole entry): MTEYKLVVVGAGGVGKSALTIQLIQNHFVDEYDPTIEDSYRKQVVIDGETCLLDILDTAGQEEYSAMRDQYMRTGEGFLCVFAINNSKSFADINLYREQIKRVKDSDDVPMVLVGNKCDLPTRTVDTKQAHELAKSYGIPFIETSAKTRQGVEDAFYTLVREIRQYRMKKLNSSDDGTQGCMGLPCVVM

[2] = target: GDP-bound HRAS wild-type protein (Homo sapiens, UniProt P01112); test: Binding to HRAS by surface plasmon resonance (SPR), Single Cycle Kinetics
Sequence of GDP-bound HRAS wild-type protein (P01112 whole entry): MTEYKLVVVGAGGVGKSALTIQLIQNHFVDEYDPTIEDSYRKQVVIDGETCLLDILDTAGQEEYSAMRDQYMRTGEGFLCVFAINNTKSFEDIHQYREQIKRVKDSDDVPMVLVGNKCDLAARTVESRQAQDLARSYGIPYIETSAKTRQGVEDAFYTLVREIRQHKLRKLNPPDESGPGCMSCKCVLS

[3] = KD ratio, GDP-bound NRAS wild-type vs GDP-bound KRAS wild-type, SPR
[4] = KD ratio, GDP-bound HRAS wild-type vs GDP-bound KRAS wild-type, SPR
[5] = SPR, GDP-bound wild-type proteins

## CCCN(C)C(=O)[C@@H]1CC(=O)N(C)[C@@H](COC)C(=O)N[C@@H]([C@@H](C)CC)C(=O)N(C)CC(=O)N(C)[C@H]2C/C=C\CCN(C2=O)[C@@H](Cc2ccc(C(F)(F)F)cc2)C(=O)N(C)CC(=O)N[C@@H](CCc2cc(F)c(Cl)c(F)c2)C(=O)N2C[C@H](OCC)C[C@H]2C(=O)NC2(CC(C)(C)C2)C(=O)N(C)[C@@H](C2CCCC2)C(=O)N1C [PP1763]
[1]; [3]
  NRAS/KRAS (ratio of KD value for NRAS to KD value for KRAS): A (a compound having 10 or more and less than 20 is denoted as A)
[2]; [4]
  HRAS/KRAS (ratio of KD value for HRAS to KD value for KRAS): A (a compound having 10 or more and less than 20 is denoted as A)

## CC[C@H](C)[C@@H]1NC(=O)[C@H](CC2CC2)N(C)C(=O)C[C@@H](C(=O)N(C)CC)N(C)C(=O)[C@H](C2CCCC2)N(C)C(=O)C2(CC(C)(C)C2)NC(=O)[C@@H]2C[C@H](C)CN2C(=O)[C@H](CCc2ccc(C(F)(F)F)c(OC)c2)NC(=O)CN(C)C(=O)[C@H](Cc2ccc(C)cc2)N2CC/C=C\C[C@@H](C2=O)N(C)C(=O)CN(C)C1=O [PP1899]
[1]; [3]
  NRAS/KRAS (ratio of KD value for NRAS to KD value for KRAS): A (a compound having 10 or more and less than 20 is denoted as A)
[2]; [4]
  HRAS/KRAS (ratio of KD value for HRAS to KD value for KRAS): B (a compound having 3 or more and less than 10 is denoted as B)

## CCO[C@@H]1C[C@H]2C(=O)NC3(CCC3)C(=O)N(C)[C@@H](C3CCCC3)C(=O)N(C)[C@H](C(=O)N(C)C)CC(=O)N(C)[C@@H](CC3CC3)C(=O)N[C@@H]([C@@H](C)CC)C(=O)N(C)CC(=O)N(C)[C@H]3C/C=C\CCN(C3=O)[C@@H](Cc3ccc(C(F)(F)F)cc3)C(=O)N(C)CC(=O)N[C@@H](CCc3cc(F)c(C(F)(F)F)c(F)c3)C(=O)N2C1 [PP1111]
[1]; [3]
  NRAS/KRAS (ratio of KD value with respect to NRAS to KD value with respect to KRAS): A (a compound having 10 or more and less than 20 is denoted as A)
[2]; [4]
  HRAS/KRAS (ratio of KD value with respect to HRAS to KD value with respect to KRAS): A (a compound having 10 or more and less than 20 is denoted as A)

## CCCN1C(=O)CN(C)C(=O)CNC(=O)[C@H]([C@@H](C)CC)NC(=O)[C@H](CC(C)C)N(C)C(=O)C[C@@H](C(=O)N2CCOCC2)NC(=O)[C@H](C2CCCC2)N(C)C(=O)C2(CCC2)NC(=O)[C@@H]2CC(F)(F)CN2C(=O)[C@H](CCc2ccc(C(F)(F)F)c(Cl)c2)NC(=O)CN(C)C(=O)[C@@H]1Cc1ccc(C(F)(F)F)cc1 [PP0328] ([NMeL]IG[Sar][NPrPhe(4-CF3)][Sar][hPhe(3-Cl-4-CF3)][Pro(4,4-F2)][Ac4c][NMeGly(cPent)]D-Morpholide; lactam N-11)
[1]; SPR
  NRAS/KRAS (ratio of KD for GDP-bound NRAS wild-type to KD for KRAS): B (a compound having 3 or more and less than 10 is denoted as B)
[2]; SPR
  HRAS/KRAS (ratio of KD for GDP-bound HRAS wild-type to KD for KRAS): B (a compound having 3 or more and less than 10 is denoted as B)

## CCO[C@@H]1C[C@H]2C(=O)NC3(CCC3)C(=O)N(C)[C@@H](C3CCCC3)C(=O)N(C)[C@H](C(=O)N(C)C)CC(=O)N(C)[C@@H](CC3CCCC3)C(=O)N[C@@H]([C@@H](C)CC)C(=O)N(C)CC(=O)N(C)[C@H]3C/C=C\CCN(C3=O)[C@@H](Cc3ccc(C)cc3)C(=O)N(C)CC(=O)N[C@@H](CCc3cc(Cl)c(C(F)(F)F)c(Cl)c3)C(=O)N2C1 [PP2679]
[1]; class symbols
  NRAS/KRAS (ratio of KD value with respect to GDP-bound NRAS wild-type protein to KD value with respect to KRAS): A (a compound having 10 or more and less than 20 is denoted as A)
[2]; class symbols
  HRAS/KRAS (ratio of KD value with respect to GDP-bound HRAS wild-type protein to KD value with respect to KRAS): A (a compound having 10 or more and less than 20 is denoted as A)

## CCCN1C(=O)[C@@H]2CCN2C(=O)[C@H](C)N(C)C(=O)[C@H]([C@@H](C)CC)NC(=O)[C@H](CC(C)C)N(C)C(=O)C[C@@H](C(=O)N(C)C)NC(=O)[C@H](C2CCCC2)N(C)C(=O)C2(CCCC2)NC(=O)[C@@H]2CC(F)(F)CN2C(=O)[C@H](CCc2ccc(C(F)(F)F)c(Cl)c2)NC(=O)CN(C)C(=O)[C@@H]1Cc1ccc(C(F)(F)F)cc1 [PP0381] ([NMeL]I[NMeA][Aze][NPrPhe(4-CF3)][Sar][hPhe(3-Cl-4-CF3)][Pro(4,4-F2)][Ac5c][NMeGly(cPent)]D-NMe2; lactam N-11)
[1]; SPR
  NRAS/KRAS (ratio of KD for GDP-bound NRAS wild-type to KD for KRAS): C (A compound having a KD ratio of 0.1 or more and less than 3 is denoted as C)
[2]; SPR
  HRAS/KRAS (ratio of KD for GDP-bound HRAS wild-type to KD for KRAS): B (a compound having 3 or more and less than 10 is denoted as B)

## CCC[C@H]1C(=O)N[C@@H]([C@@H](C)CC)C(=O)N2CCC[C@H]2C(=O)N(C)[C@H]2C/C=C\CCN(C2=O)[C@@H](Cc2ccc(C(F)F)cc2)C(=O)N(C)CC(=O)N[C@@H](CCc2ccc(Cl)c(Cl)c2)C(=O)N2C[C@H](OCC)C[C@H]2C(=O)NC2(CC(C)(C)C2)C(=O)N(C)[C@@H](C(CC)CC)C(=O)N(C)[C@H](C(=O)N(C)C)CC(=O)N1C [PP2637]
[1]; class symbols
  NRAS/KRAS (ratio of KD value with respect to GDP-bound NRAS wild-type protein to KD value with respect to KRAS): AA (a compound having 20 or more is denoted as AA)
[2]; class symbols
  HRAS/KRAS (ratio of KD value with respect to GDP-bound HRAS wild-type protein to KD value with respect to KRAS): A (a compound having 10 or more and less than 20 is denoted as A)

## CCC(CC)[C@H]1C(=O)N(C)[C@H](C(=O)N(C)C)CC(=O)N(C)[C@@H](COC)C(=O)N[C@@H]([C@@H](C)CC)C(=O)N(C)CC(=O)N(C)[C@H]2C/C=C\CCN(C2=O)[C@@H](Cc2ccc(C)cc2)C(=O)N(C)CC(=O)N[C@@H](CCc2ccc(Cl)c(Cl)c2)C(=O)N2CCCCC[C@H]2C(=O)NC2(CC(C)(C)C2)C(=O)N1C [PP2974]
[1]; [5]
  NRAS/KRAS (ratio of KD value with respect to GDP-bound NRAS wild-type protein to KD value with respect to KRAS): A (a compound having 10 or more and less than 20 is denoted as A)
[2]; [5]
  HRAS/KRAS (ratio of KD value with respect to GDP-bound HRAS wild-type protein to KD value with respect to KRAS): A (a compound having 10 or more and less than 20 is denoted as A)
